The record followed here is ChEMBL document CHEMBL1137248, “2-(3-Amino-3-deoxy-beta-D-xylofuranosyl)thiazole-4-carboxamide: a new tiazofurin analogue with potent antitumour activity” (Bioorg Med Chem Lett, 2006).

Type in all cases: cell-based
One assay has as its system HeLa. As to the kind of experiment: Cytotoxicity against HeLa cells after 24 hrs by MTT assay. Particulars: Homo sapiens. For orientation: Tetrazolium assays rely on reduction of a dye to a coloured formazan, in cell work by metabolically active cells.
The subject of the next assay is Jurkat. As to the kind of experiment: Cytotoxicity against Jurkat cells after 24 hrs by MTT assay. Particulars: Homo sapiens.
The subject of the next assay is MRC5. As to the kind of experiment: Cytotoxicity against MRC5 cells after 24 hrs by MTT assay. Particulars: Homo sapiens, MRC5, 24 h.
Another assay deals with HT-29. As to the kind of experiment: Cytotoxicity against HT29 cells after 24 hrs by MTT assay. The following applies: Homo sapiens, HT-29, 24 h.
A further assay has as its system K562. As to the kind of experiment: Cytotoxicity against human K562 cells after 24 hrs by MTT assay. Particulars: K562, 24 h.

Structures are written as SMILES.

For `NC(=O)c1csc([C@@H]2O[C@H](CO)[C@H](N)[C@H]2O)n1`, the IC50 in the assay with HeLa is 0.28 µM; with Jurkat, 0.06 µM; with MRC5, more than 100 µM; in the assay with HT-29, 0.037 µM; in the assay on K562, 0.052 µM.
Turning to `CC(=O)N[C@@H]1[C@@H](O)[C@H](c2nc(C(N)=O)cs2)O[C@@H]1CO`, the IC50 in the assay on HeLa is more than 100 µM; in the assay with Jurkat, 0.45 µM; with MRC5, 89.7 µM; with HT-29 it was 1 µM; in the assay with K562, 0.095 µM.
For the compound `NC(=O)c1csc([C@@H]2O[C@H](CO)[C@@H](O)[C@H]2O)n1` [TIAZOFURIN], the IC50 came to 4.76 µM with HeLa, 0.14 µM in the assay on Jurkat and 5.29 µM with K562.

Broadly, the IC50 is the midpoint of a concentration-inhibition curve.
